The values below come from US20240158418A1 (C4 Therapeutics, Inc., priority 2021, published 2024).

pIC50: −log10 of the molar value. Where two headings read alike, the source gives them in different places.

One assay deals with EGFR L858R (Homo sapiens, UniProt P00533, L858R). The assay can be described thus: EGFR degradation, Total EGFR (L858R-specific) HTRF, NCI-H3255. The format is cell-based. The arrangement: NCI-H3255 (harboring EGFR heterozygous L858R mutation); host or cells: NCI-H3255. The settings on record: H3255 (L858R), 6 hours; read-out: tEGFR DC50. In outline: (§1)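 Cells in RPMI 1640 + 10% FBS treated 6 h at 37°C with compound, 11-point half-log titration from 10 μM top, in duplicate. pY1068 and total EGFR read by HTRF (pan-EGFR antibody for wild-type A431; L858R-specific for mutants); IC50 for phospho inhibition, DC50 for 50% degradation.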
EGFR L858R, sequence (P00533 25-1210 L858R): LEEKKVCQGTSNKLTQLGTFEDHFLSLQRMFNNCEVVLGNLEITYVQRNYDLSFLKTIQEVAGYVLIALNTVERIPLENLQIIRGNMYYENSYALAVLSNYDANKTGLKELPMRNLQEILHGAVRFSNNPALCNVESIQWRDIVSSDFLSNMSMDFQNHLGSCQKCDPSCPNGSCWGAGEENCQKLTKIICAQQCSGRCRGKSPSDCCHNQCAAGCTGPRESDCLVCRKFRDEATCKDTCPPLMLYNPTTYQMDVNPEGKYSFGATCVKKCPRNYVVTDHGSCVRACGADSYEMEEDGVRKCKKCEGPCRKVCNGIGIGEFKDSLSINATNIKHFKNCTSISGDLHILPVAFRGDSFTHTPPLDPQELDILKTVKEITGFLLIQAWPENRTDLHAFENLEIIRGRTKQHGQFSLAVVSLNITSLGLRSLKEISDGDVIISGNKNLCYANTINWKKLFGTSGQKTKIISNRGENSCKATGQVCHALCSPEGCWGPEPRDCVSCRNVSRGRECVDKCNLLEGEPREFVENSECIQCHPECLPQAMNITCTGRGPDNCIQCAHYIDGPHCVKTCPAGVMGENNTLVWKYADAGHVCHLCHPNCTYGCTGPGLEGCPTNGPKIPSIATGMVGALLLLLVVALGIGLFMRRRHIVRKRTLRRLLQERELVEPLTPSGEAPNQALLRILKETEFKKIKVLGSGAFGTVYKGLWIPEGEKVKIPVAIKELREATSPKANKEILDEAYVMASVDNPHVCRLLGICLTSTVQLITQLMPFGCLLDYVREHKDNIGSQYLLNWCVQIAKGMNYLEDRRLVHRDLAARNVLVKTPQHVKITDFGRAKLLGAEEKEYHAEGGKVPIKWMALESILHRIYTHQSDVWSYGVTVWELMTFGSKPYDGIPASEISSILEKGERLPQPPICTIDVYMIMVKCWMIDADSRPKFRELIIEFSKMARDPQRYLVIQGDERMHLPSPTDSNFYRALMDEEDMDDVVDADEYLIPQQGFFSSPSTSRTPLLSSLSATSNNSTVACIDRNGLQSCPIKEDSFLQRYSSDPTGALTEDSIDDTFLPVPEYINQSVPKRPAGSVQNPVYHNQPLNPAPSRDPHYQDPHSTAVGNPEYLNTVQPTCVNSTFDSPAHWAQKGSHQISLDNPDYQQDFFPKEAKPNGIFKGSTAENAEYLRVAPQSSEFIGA

The target of a further assay is T1, pY1068 EGFR L858R (Homo sapiens, UniProt P00533, L858R).
T1 construct: NCI-H3255 (harboring EGFR heterozygous L858R mutation); host or cells: NCI-H3255
T1 sequence (P00533 25-1210 L858R): as above
Description: Phospho-EGFR (pY1068) inhibition HTRF, NCI-H3255. The format is cell-based. The settings on record: 6 hours, read-out: pEGFR IC50. An excerpt: (§2) NCI-H1975 (harboring EGFR heterozygous L858R-T790M mutations) and NCI-H3255 (harboring EGFR heterozygous L858R mutation) were purchased from ATCC and NCI, respectively. NCI-H1975+CS (harboring EGFR heterozygous L858R-T790M-C797S mutations) was generated using CRISPR technology to introduce the additional C797S mutation by Horizon Discovery. A431 (harboring EGFR wildtype) was purchased from ATCC. RPMI 1640 no-phenol red medium and fetal bovine serum (FBS) were purchased from Gibco (Grand Island, NY, USA). Cell culture flasks and 384-well microplates were acquired from VWR (Radnor, PA, USA). Phosphorylated (pY1068) EGFR and Total EGFR (using L858R-specific detection antibody and pan-EGFR antibody for EGFR mutant cell lines and EGFR wild-type cell lines, respectively) HTRF assay kits were purchased from Cisbio (Bedford, MA, USA).
(§3) Degradation of EGFR protein containing L858R mutation or wild-type was determined based on quantification of FRET signal using a Total EGFR (L858R-specific or pan-EGFR detecting) HTRF assay kit. Phospho-EGFR (pEGFR) inhibition was determined based on quantification of FRET signal using a pY1068 EGFR HTRF assay kit. In separate assay plates, test compounds were added to the 384-well plate from a top concentration of 10 μM with 11 points, half log titration in duplicates. For each assay, 12.5 uL of cells suspended in assay media (RPMI 1640 no-phenol red medium+10% FBS) at cell densities indicated for each cell line in Table 8 below were dispensed using a multi-channel pipette to 384-well low volume white HTRF microplates containing a duplicate concentration range of test compounds and DMSO controls. The plates were kept at 37° C. with 5% CO2 for 6 hours and then incubated with either phospho EGFR or Total EGFR HTRF detection antibodies according to the cell line and EGFR mutant being assayed. Cells treated in the absence of the test compound were the negative control. Positive control was set by wells containing all reagents but no cells. FRET signal was acquired on EnVision™ Multilabel Reader (PerkinElmer, Santa Clara, CA, USA). Compound concentration that achieves 50% degradation and inhibition was reported as DC50 and IC50, respectively.

For another assay, the target named is T2, pY1068 EGFR L858R-T790M (Homo sapiens, UniProt P00533, L858R/T790M).
T2 construct: NCI-H1975 (harboring EGFR heterozygous L858R-T790M mutations); host or cells: NCI-H1975
T2 sequence (P00533 25-1210 T790M/L858R): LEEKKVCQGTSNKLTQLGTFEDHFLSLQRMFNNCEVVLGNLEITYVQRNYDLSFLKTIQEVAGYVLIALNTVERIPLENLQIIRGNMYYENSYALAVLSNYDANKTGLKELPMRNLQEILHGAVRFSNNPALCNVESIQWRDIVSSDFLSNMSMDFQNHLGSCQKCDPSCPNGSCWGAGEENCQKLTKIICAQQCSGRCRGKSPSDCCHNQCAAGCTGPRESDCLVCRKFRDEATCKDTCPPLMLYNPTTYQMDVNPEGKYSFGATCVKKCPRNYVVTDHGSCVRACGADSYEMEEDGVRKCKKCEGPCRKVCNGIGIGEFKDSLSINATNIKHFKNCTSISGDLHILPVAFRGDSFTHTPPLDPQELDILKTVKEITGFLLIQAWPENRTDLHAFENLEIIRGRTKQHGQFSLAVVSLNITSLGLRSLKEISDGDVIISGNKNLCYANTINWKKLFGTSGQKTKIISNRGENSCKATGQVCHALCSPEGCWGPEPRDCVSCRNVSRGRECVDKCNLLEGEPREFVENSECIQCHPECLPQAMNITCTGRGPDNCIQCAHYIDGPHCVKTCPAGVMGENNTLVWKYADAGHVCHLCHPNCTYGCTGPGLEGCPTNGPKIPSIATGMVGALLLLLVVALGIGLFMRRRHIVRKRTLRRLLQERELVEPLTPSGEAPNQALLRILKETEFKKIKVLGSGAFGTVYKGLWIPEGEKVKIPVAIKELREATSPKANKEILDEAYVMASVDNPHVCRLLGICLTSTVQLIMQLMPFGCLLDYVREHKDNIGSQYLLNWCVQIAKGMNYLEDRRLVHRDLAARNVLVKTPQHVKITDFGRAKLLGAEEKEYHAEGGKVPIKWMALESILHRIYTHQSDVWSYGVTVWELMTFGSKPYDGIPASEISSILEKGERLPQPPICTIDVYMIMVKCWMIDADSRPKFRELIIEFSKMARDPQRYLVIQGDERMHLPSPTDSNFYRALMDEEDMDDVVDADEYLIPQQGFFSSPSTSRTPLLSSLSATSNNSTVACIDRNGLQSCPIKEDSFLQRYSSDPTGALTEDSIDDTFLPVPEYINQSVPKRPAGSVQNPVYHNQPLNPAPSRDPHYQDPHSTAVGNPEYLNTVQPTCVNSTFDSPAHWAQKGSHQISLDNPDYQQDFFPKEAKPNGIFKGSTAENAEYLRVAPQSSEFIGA
The assay can be described thus: Phospho-EGFR (pY1068) inhibition HTRF, NCI-H1975. The settings on record: 6 hours, read-out: pEGFR IC50. The format is cell-based.
From the text: as §2, §3

The next assay deals with T3, EGFR WT (Homo sapiens, UniProt P00533).
T3 construct: A431 (harboring EGFR wildtype) was purchased from ATCC; host or cells: A431
Description: EGFR degradation, Total EGFR (pan-EGFR) HTRF, A431. The format is cell-based. The settings on record: A431 (wild-type), 6 hours; read-out: tEGFR DC50.
From the text: as §2, §3

Assay [1] addresses T4, pY1068 EGFR L858R-T790M-C797S (Homo sapiens, UniProt P00533, C797S/L858R/T790M).
T4 construct: generated using CRISPR technology to introduce the additional C797S mutation by Horizon Discovery; host or cells: NCI-H1975+CS (CRISPR knock-in of C797S)
The assay can be described thus: Phospho-EGFR (pY1068) inhibition HTRF, NCI-H1975+CS. The format is cell-based. The settings on record: 6 hours, read-out: pEGFR IC50.
From the text: as §2, §3

In the next assay the target is T5, EGFR L858R-T790M-C797S (Homo sapiens, UniProt P00533, C797S/L858R/T790M).
T5 construct: generated using CRISPR technology to introduce the additional C797S mutation by Horizon Discovery; host or cells: NCI-H1975+CS (CRISPR knock-in of C797S)
Description: EGFR degradation, Total EGFR (L858R-specific) HTRF, NCI-H1975+CS. The format is cell-based. The settings on record: H1975 + CS (L858R-T790M-C797S), 6 hours; read-out: tEGFR DC50. Summed up: as §1

Another assay concerns the target T6, EGFR L858R-T790M (Homo sapiens, UniProt P00533, L858R/T790M).
T6 construct: NCI-H1975 (harboring EGFR heterozygous L858R-T790M mutations); host or cells: NCI-H1975
The assay can be described thus: EGFR degradation, Total EGFR (L858R-specific) HTRF, NCI-H1975. The format is cell-based. The settings on record: 6 hours. In outline: as §1

For assay [2], the system named is BaF3 cells expressing EGFR L858R-T790M-C797S. Description: Ba/F3 EGFR cell viability (CellTiter-Glo), L858R-T790M-C797S. The format is cell-based. The settings on record: Mus musculus, read-out: CTGlo (GI50). The text has this:
(§4) RPMI 1640 media, cell culture flasks, and 384-well microplates were purchased from VWR (Radnor, PA, USA). Fetal bovine serum (FBS) was purchased from Life Technologies (Carlsbad, CA, USA) and CellTiter-Glo® was purchased from Promega (Madison, WI, USA). The Ba/F3 parental cell line was purchased from CrownBio (Santa Clara, CA). BaF3 cell lines ectopically expressing the EGFR mutations L858R, L858R-T790M, L858R-C797S, and L858R-T790M-C797S were purchased from CrownBio and EGFR mutations L858R-L718Q, L858R-T790M-L718Q, L858R-L792H, and L858R-T790M-L792H, were purchased from Signosis (Santa Clara, CA).
(§5) Cell viability was assessed based on the quantification of ATP using the CellTiter-Glo® assay (Promega, Madison, WI, USA). To determine the effect of compounds on cell viability, all Ba/F3 cell lines were plated at a cell density of 2000 cells/well in 384-well plates using RPMI 1640+10% FBS and treated with compounds of interest using a 10-point half-log dilution series in duplicate for 72 hours, with the highest dose set at […]. CellTiter-Glo® reagent was then added and luminescence signals were measured using an EnVision™ Multimode plate reader (Perkin Elmer, Santa Clara, CA). For data normalization, cells untreated with the test compounds at Time=72 hours were set to 100% (equivalent to maximal cell growth after 72 hours); cells untreated with the test compounds at Time=0 hours were set to 0% (equivalent to cytostasis); and media-only wells were set to −100% (equivalent to complete cytotoxicity). % Viability was determined by normalizing the signal with positive and DMSO treated negative controls on the same microtiter plate. The half-maximal inhibition of cell growth (GI50) is computed from where the fitted curve crosses 50% while the half-maximal lethal dose (LD50) is computed from where the fitted curve crosses −50%.

In assay [3] the test system is BaF3 cells expressing EGFR L858R-L792H. The assay can be described thus: Ba/F3 EGFR cell viability (CellTiter-Glo), L858R-L792H. The format is cell-based. The settings on record: Mus musculus, read-out: CTGlo (GI50).
From the text: as §4, §5

The test system of assay [4] is BaF3 cells expressing EGFR L858R-L718Q. Description: Ba/F3 EGFR cell viability (CellTiter-Glo), L858R-L718Q. The format is cell-based. The settings on record: Mus musculus, read-out: CTGlo (GI50).
From the text: as §4, §5

Assay [5] concerns BaF3 cells expressing EGFR L858R-T790M-L718Q. Description: Ba/F3 EGFR cell viability (CellTiter-Glo), L858R-T790M-L718Q. The format is cell-based. The settings on record: Mus musculus, read-out: CTGlo (GI50).
From the text: as §4, §5

Assay [6] deals with BaF3 cells expressing EGFR L858R-T790M-L792H. The assay can be described thus: Ba/F3 EGFR cell viability (CellTiter-Glo), L858R-T790M-L792H. The format is cell-based. The settings on record: Mus musculus, read-out: CTGlo (GI50).
From the text: as §4, §5

In assay [7] the test system is engineered triple mutant EGFR (L858R-T790M-C797S) BaF3 tumors. The assay can be described thus: BaF3 triple mutant EGFR allograft efficacy. The format is in vivo, female BALB/c nude mice. The settings on record: Compound 1 or 2 at 20, 50, 100 mg/kg/day PO BID; osimertinib 25 mg/kg/day PO QD; 14 days. Here is the method: Each Compound was administered BID (twice a day) orally (PO).
Tumor volume was measured twice weekly in two dimensions using calipers, and volume (mm^3) was calculated using the formula: V=0.5 a×b^2 where a and b are the long and short diameters of the tumor in mm, respectively. […] Treatment began on Day 0 with established subcutaneous BaF3 tumors with a mean tumor volume (MTV) of 108 mm^3.
Body weight and MTV were measured on a 2× weekly schedule. Statistical analysis was performed using a one-way ANOVA followed by Dunnett's multiple comparison test. Data are expressed as MTV±SEM.

The mark [8] stands for this setting: Table 9A, NCI-H1975 cells, Total EGFR HTRF, read-out: H1975 EGFR DC50.
Setting [9] is: H1975 (L858R-T790M), read-out: tEGFR DC50.

T6 sequence (P00533 25-1210 T790M/L858R): as above

`Cn1nc(N2CCC(=O)NC2=O)c2ccc(C3CCN(CC(=O)N4CC5(C4)CN(c4ccc(-c6cc(F)c7c(c6)C(=O)N(C(C(=O)Nc6ccccn6)c6ncn8c6CCC8)C7)cc4)C5)CC3(F)F)cc21` (stereo not drawn) [Compound 5, 2-(6,7-dihydro-5H-pyrrolo[1,2-c]imidazol-1-yl)-2-[6-[4-[2-[2-[4-[3-(2,4-dioxohexahydropyrimidin-1-yl)-1-methyl-indazol-6-yl]-3,3-difluoro-1-piperidyl]acetyl]-2,6-diazaspiro[3.3]heptan-6-yl]phenyl]-4-fluoro-1-oxo-isoindolin-2-yl]-N-(2-pyridyl)acetamide]: the DC50 is 22 nM at EGFR L858R, more than 10000 nM at EGFR WT, 23 nM at EGFR L858R-T790M-C797S and less than 50 nM at EGFR L858R-T790M (setting [8]). The pIC50 on pY1068 EGFR L858R is 7.72; on pY1068 EGFR L858R-T790M, 7.92; in assay [1] it was 7.66.

With `O=C1CC[C@H](Nc2ccc(N3CCC(O)(CC(=O)N4CCC5(CC4)CN(c4ccc(-c6cc(F)c7c(c6)C(=O)N(C(C(=O)Nc6nccs6)c6ncn8c6CCC8)C7)cc4)C5)CC3)c(F)c2)C(=O)N1` (stereo partly drawn) [Compound 9, 2-(6,7-dihydro-5H-pyrrolo[1,2-c]imidazol-1-yl)-2-[6-[4-[7-[2-[1-[4-[[(3S)-2,6-dioxo-3-piperidyl]amino]-2-fluoro-phenyl]-4-hydroxy-4-piperidyl]acetyl]-2,7-diazaspiro[3.5]nonan-2-yl]phenyl]-4-fluoro-1-oxo-isoindolin-2-yl]-N-thiazol-2-yl-acetamide], the GI50 was 16 nM in [2]; 10 nM in [3]; 23 nM in [4]; 82 nM in assay [5]; 33 nM in assay [6]. For the same compound, the pIC50 on pY1068 EGFR L858R-T790M was 7.52. Moreover, the figures for the DC50 on EGFR L858R-T790M (setting [9]) and on EGFR L858R-T790M (setting [8]) were 24 nM and less than 50 nM, respectively.

For the compound `C=CC(=O)Nc1cc(Nc2nccc(-c3cn(C)c4ccccc34)n2)c(OC)cc1N(C)CCN(C)C` [osimertinib, reference compound], the “efficacy on BaF3 tumor volume” value in assay [7] is “minimal efficacy”.

For the compound `O=C1CCN(c2ccc(N3CCC(O)(CC(=O)N4CC5(C4)CN(c4ccc(-c6cc(F)c7c(c6)C(=O)N(C(C(=O)Nc6nccs6)c6ncn8c6CCC8)C7)cc4)C5)CC3)c(Cl)c2)C(=O)N1` (stereo not drawn) [Compound 8, 2-[6-[4-[2-[2-[1-[2-chloro-4-(2,4-dioxohexahydropyrimidin-1-yl)phenyl]-4-hydroxy-4-piperidyl]acetyl]-2,6-diazaspiro[3.3]heptan-6-yl]phenyl]-4-fluoro-1-oxo-isoindolin-2-yl]-2-(6,7-dihydro-5H-pyrrolo[1,2-c]imidazol-1-yl)-N-thiazol-2-yl-acetamide], the GI50 in assay [2] was found to be 13 nM; in [3], 213 nM; in [4] it was 2020 nM; in assay [5], 403 nM; in [6], 45 nM. In addition, the pIC50 on pY1068 EGFR L858R-T790M was 7.66. Besides, the DC50 on EGFR L858R-T790M (setting [9]) was 23 nM; at EGFR L858R-T790M (setting [8]), less than 50 nM.
